Biological target: Sodium- and chloride-dependent taurine transporter (Homo sapiens) (UniProt P31641)
Assay: SLC6A6 taurine transporter substrate activity, dose response, cell-based, membrane potential dye, HEK-293, SLC6A6 overexpression (AID 1794824)
Details: HEK-293 SLC6A6 OE, FLIPR membrane potential dye

Sodium- and chloride-dependent taurine transporter (Homo sapiens), sequence (P31641 whole entry, looked up): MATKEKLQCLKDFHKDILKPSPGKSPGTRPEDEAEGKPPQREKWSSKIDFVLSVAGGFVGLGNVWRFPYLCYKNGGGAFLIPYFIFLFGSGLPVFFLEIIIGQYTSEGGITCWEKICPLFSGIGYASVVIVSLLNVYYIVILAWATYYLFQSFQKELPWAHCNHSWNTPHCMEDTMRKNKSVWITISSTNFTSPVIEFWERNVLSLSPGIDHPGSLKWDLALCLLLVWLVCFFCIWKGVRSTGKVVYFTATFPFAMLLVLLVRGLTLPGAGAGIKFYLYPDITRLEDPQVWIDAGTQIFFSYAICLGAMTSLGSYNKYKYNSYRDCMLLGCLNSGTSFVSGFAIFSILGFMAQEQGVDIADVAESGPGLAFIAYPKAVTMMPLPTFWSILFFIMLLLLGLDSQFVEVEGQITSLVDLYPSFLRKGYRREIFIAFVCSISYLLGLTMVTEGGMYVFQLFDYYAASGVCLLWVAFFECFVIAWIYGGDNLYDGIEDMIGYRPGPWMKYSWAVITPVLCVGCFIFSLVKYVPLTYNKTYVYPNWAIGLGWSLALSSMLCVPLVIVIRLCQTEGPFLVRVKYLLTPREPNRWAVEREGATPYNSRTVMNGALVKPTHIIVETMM

SMILES | EC50 [µM]
NCCCC(=O)O | 354
NCCS(=O)(=O)O | 10
